Test results taken from patent US11351218B2, “Composition for preventing or treating glioblastoma comprising Platycodon grandiflorum A. De Candolle, Scutellaria baicalensis, Phellodendron amurense Ruprecht or Rubus coreanus” (University-Industry Cooperation Group of Kyung Hee …, priority 2019, dated 2022).

Assays:
[1] = system: LC3B and SQSTM1/p62; test: Immunoblot of LC3B and SQSTM1/p62 in GBM cells (U87MG and U373MG); type: cell-based, human
Description: FIGS. 2A and 2B show the results that an extract of Platycodon grandiflorum (PG) increases the levels of LC3-II and p62. […] GAPDH was used as a loading control.
FIGS. 3A to 3C show the results that PD inhibits autophagic flux in GBM cells. […] The expression of LC3B and SQSTM1 was confirmed by immunoblot analysis. […] GAPDH was used as a loading control.
The human glioma cell lines, U87MG and U373MG, were cultured respectively in RPMI-1640 (Welgene) and DMEM (Welgene, Daegu, Korea) supplemented with 10% fetal bovine serum (FBS, JR Scientific) and 1% antibiotics (Ab, Welgene). All cultures were maintained at 37° C. in a humidified incubator containing 5% CO2.
Cells treated with the concentrations and materials described in FIGS. 1-3B, 7, 8, 10, 13, 16, 18, and 20 were lysed in buffer containing 20 mM Tris-HCl (pH 7.5), 150 mM NaCl, 1 mM EDTA, 1 mM Na2EDTA, 1 mM EGTA, 1% NP-40, 1% sodium deoxycholate, 1 mM Na3VO4, 1 mM MPI, 1 mM PMSF, and PI cocktails for 15 to 20 minutes on ice. Cell lysates were separated by SDS-PAGE and transferred to nitrocellulose membranes. Immunodetection was performed with the following primary antibodies: rabbit anti-LC3B, rabbit anti-cathepsin B, rabbit-anti GAPDH (Cell Signaling Technology, Danvers, Mass.), mouse anti-SQSTM1/p62, and goat anti-cathepsin D (Santa CruzKPL, Gaithersburg, Md., USA) were incubated at room temperature for 1 hour. The protein bands were detected with ECL western Blotting Substrate (Thermo Fisher Scientific, Waltham, Mass., USA).

[2] = system: normal human astrocytes; test: WST1 cell viability assay, normal astrocytes; type: cell-based; settings: normal human astrocytes vs GBM cells, 48 hours
Description: FIGS. 6A and 6B show the results that PD induces a decrease in cell viability and vacuole formation. […] Data shown represent the means of quintuplicate measurements which were repeated three times. The results are presented as a percentage of control (means±SD).
Cell cytotoxicity was assessed by WST1 assay. U87 and U373 cells were each seeded in a 96-well plate (5×10^3 cells/well) and treated with different concentrations of platycodin D (PD). Then, cells were incubated with a WST1 reagent (Dogen, Seoul, Korea) for 2 hours before reading the plate. Absorbance was measured at 450 nm using an ELISA reader (Versa Max, Molecular Devices, Sunnyvale, Calif., USA).
Inhibition of autophagy has been reported to cause cancer cell death. Therefore, the cytotoxic effects of PD on U87MG, U373MG, and normal astrocytes were examined. After treating these cells with various doses of PD for 48 hours, their cell viability was analyzed by WST1 assays. […] As can be confirmed in FIG. 6B, morphological changes were also visualized by an optical microscope after exposure of GBM cells to 10 μM PD for 24 hours.

[3] = system: U87MG and U373MG cells; test: mRFP-GFP-LC3 tandem reporter (autolysosome formation) in GBM cells; type: cell-based, human; settings: PD 10 μM or Rapa 1 μM, 24 hours
Description: Cells stably expressing mRFP-GFP-LC3 were incubated with PD (10 μM) or Rapa (1 μM) for 24 hours, and then analyzed by confocal microscopy. The merged images (yellow) show an overlap between GFP-LC3 (green) and mRFP-LC3 (red). The panels on the right are higher-magnification images of the boxed regions.
In order to examine whether PD induces accumulation of autophagosomes by inhibiting their maturation into autolysosomes, a tandem-tagged fluorescent reporter, mRFP-GFP-LC3, was used. The GFP fluorescence of the fusion protein is rapidly quenched in lysosomal acidic conditions, whereas the RFP fluorescence is relatively stable. The yellow dots in the merged image are indicative of autophagsomes and […] dots correspond to autolysosomes. The mRFP-GFP-LC3 plasmids were transfected into U87MG and U373MG cells, treated with PD for 24 hours, and subjected to confocal microscopy.

[4] = system: cell-surface LDLR; test: Cell surface LDLR analysis by flow cytometry, GBM cells; type: cell-based, human; settings: PD 10 μM or U18666a 1 μM, 24 hours
Description: (§1) FIGS. 16A to 16D show the results that PD increases the expression of LDLR on cell surfaces in GBM cells. […] GAPDH was used as a loading control. […] GAPDH was used as a loading control.
(§2) Cells treated as described in FIG. 16 were separated from plates and resuspended in PBS. After washing with 1% BSA in PBS, the cells were incubated with a primary antibody against human LDLR (Abcam) for 30 minutes. Then, the cells were washed before incubation with an Alexa-Fluor 488-conjugated secondary antibody (Invitrogen) for 30 minutes. The stained cells were washed and resuspended. Fluorescence was analyzed by a FACScalibur flow cytometer (Becton Dickinson, San Jose, Calif., USA) using CellQuest™ software.
(§3) Brain is the most cholesterol-rich organ of the body, containing about 20% of total body cholesterol. […] As can be confirmed in FIG. 16A, in consistent with these reports, the LDLR protein level was markedly elevated in U87MG and U373MG cells relative to normal human astrocytes. […] Then, the cell surface expression of LDLR was confirmed by flow cytometry.

[5] = system: cell-surface LDLR; test: Cell surface LDLR analysis by flow cytometry, normal astrocytes; type: cell-based, human; settings: PD 10 μM or U18666a 1 μM, 24 hours
Description: as §1, §2, §3

[6] = system: U87MG and U373MG cells; test: BODIPY FL LDL uptake assay, GBM cells; type: cell-based, human; settings: PD 10 μM 24 hours, BODIPY FL LDL 1 hour
Description: Cells were treated with DMSO, PD (10 μM), or U18 (1 μM) for 24 hours and subsequently loaded with BODIPY™ FL LDL. BODIPY-LDL uptake was visualized by confocal microscopy. Nuclei were stained with DAPI (blue). Quantification shown on the right graph represents a relative fold change from three independent experiments±SD.
Cells seeded on coverslips were treated with the materials and then the culture medium was replaced with BODIPY™ FL LDL (Thermo Fisher Scientific) at a working concentration of 5 μg/mL in a medium. The cells were additionally incubated at 37° C. for 1 hour. The degree of LDL uptake was measured using a Zeiss laser confocal microscope.
Based on the previous study results of the present inventors that PD increases cell surface LDLR expression and accumulate cholesterol within lysosomes, whether PD can increase the uptake of exogenous LDL was examined Cells pretreated with PD or U18666A were incubated with BODIPY FL-labeled LDL particles for 1 hour and the LDL uptake was observed by a confocal microscope. Upon analysis of these cells, it was observed that PD caused about a 6-fold increase in LDL uptake and it was a level similar to that detected in the U18666A-treated cells.

C[C@@H]1O[C@@H](O[C@H]2[C@H](OC(=O)[C@]34CCC(C)(C)C[C@H]3C3=CC[C@@H]5[C@@]6(C)C[C@H](O)[C@H](O[C@@H]7O[C@H](CO)[C@@H](O)[C@H](O)[C@H]7O)C(CO)(CO)[C@@H]6CC[C@@]5(C)[C@]3(C)C[C@H]4O)OC[C@H](O)[C@@H]2O)[C@H](O)[C@H](O)[C@H]1O[C@@H]1OC[C@@H](O)[C@H](O[C@@H]2OC[C@](O)(CO)[C@H]2O)[C@H]1O [PD, platycodin D]
LC3B-II and p62 levels over time ([1]; 10 μM PD, 3 hours to 24 hours): time-dependent increases | LC3B-II and p62 levels ([1]; PD 0 μM to 10 μM, 24 hours): dose-dependent increases | concentration of maximum activity (LC3B-II and p62 levels) ([1]; PD 0 μM to 10 μM, 24 hours): 10 µM | PD-mediated reduction in cell viability [2]: less effective | mRFP and GFP dots of mRFP-GFP-LC3 [3]: GFP-positive dots were retained and colocalized with mRFP dots | cell surface expression of LDLR [4]: shift of the FL-1 histogram peak toward right | changes in peak shift (cell surface LDLR) [5]: very negligible | increase in LDL uptake [6]: ~6 fold
